# pIC50: −log10 of the molar value. Where “and” joins values, the source holds several entries; their conditions need not be identical. Equal entries are not always repeated.
# Columns and labels:
# [1] = system: CEM cells; experiment: Quantitative global proteomics (nLC-MS/MS), cells 12 h after release from G1 arrest; type: cell-based, human; design: key to RNR Level / dCK Level: ↓: partial decrease/inhibition; ↓↓↓: nearly complete inhibition; ↑: increase; ⟷: no change; conditions: for Protein expression level normalized to control (NT): Eukaryotic translation initiation factor 6 (EIF6) / Protein expression level normalized to control (NT): Ribonucleoside-diphosphate reductase subunit M2 (RRM2) / Protein expression level normalized to control (NT): Translationally-controlled tumor protein (TPT1): 12 h following release from G1 arrest, independent analyses #1-#4; for RNR Level / dCK Level: summary Fig. 2g, CEM cells
# Procedure: To investigate the molecular mechanisms underlying the metabolic consequences of ATR and dCK inhibition, global changes in protein expression were assessed in CEM cells using quantitative nano-LC tandem MS (nLC-MS/MS) (Fig. 2a). Chemical isotope coding following reductive dimethylation of peptide N-termini and lysine primary amines with differential stable isotopes (light:medium:heavy) was used to compare expression of experimental (VE-822, dCKi and VE-822 + dCKi) samples to controls (untreated, NT) by mixing equal proportions for triplex nLC-MS/MS quantitative analyses. The data set was filtered for proteins identified in all treatment groups in three independent experiments with coefficients of variation <20%. This yielded 1757 proteins with relative fold changes in treated vs. untreated cells ranging from 0.45 to 1.83. […] Protein levels of both RNR subunits, RRM1 and RRM2, as well as thymidylate synthase decreased by more than 20% following ATR inhibition (Fig. 2c). Changes in the expression of de novo enzymes observed in synchronous cells also occurred with ATR inhibition in asynchronous CEM cells (Fig. 2d and Supplementary Data 3), thereby arguing against the possibility of experimental artifacts introduced by Palbociclib-mediated cell cycle synchronization. The reduction in RRM2 levels induced by ATR inhibition was accompanied by an ~ 50% decrease in the phosphorylation of RRM2 on threonine 33 (pT33) (Fig. 2e), a phosphosite previously linked to the RRM2 stability. […]
# Proteomic analyzes. CCRF-CEM cells were treated ± with a CDK4/6 inhibitor, PD-0332991 (Selleckchem) for 18 h to arrest at G1 phase. Cells were then washed twice with PBS and released in fresh media with treatment at a density of 1 x 10^6 cells/mL. Cells were collected at 12 h, washed twice with ice-cold PBS, and lysed by trituration using 1 mL per 5 x 10^7 cells of 0.5% sodium deoxycholate, 12 mM sodium lauryl sarcosine, and 50 mM triethylammonium bicarbonate, pH 8.0. Lysates were heated at 95 °C for 5 min and water bath sonicated at room temperature (RT) for 5 min. Bicinchoninic acid protein assay (Pierce) was performed to determine protein concentration. Disulfide bridges were reduced with 5 mM tris(2-carboxyethyl)phosphine (final concentration) at RT for 30 min with subsequent treatment with 10 mM iodoacetamide (final concentration) at RT in the dark for 30 min. Solutions were diluted 1:5 (v:v) with 50 mM triethylammonium bicarbonate. Proteins were cleaved with sequencing grade trypsin (Promega) at 1:100 (enzyme:protein) for 4 h at 37 °C followed by a second aliquot of trypsin 1:100 (enzyme:protein) overnight at 37 °C. Samples were acidified with 0.5% trifluoroacetic acid (final concentration), vortexed rapidly for 5 min, and centrifuged (16,000 x g for 5 min, RT) to pellet sodium deoxycholate. Supernatants were transferred to new microcentrifuge tubes and 20 µg of total peptide were desalted using C18 StageTips as previously described2. On-column dimethyl labeling using C18 StageTips was performed as previously described3. Briefly, StageTips were equilibrated with 20 μL of 250 mM 2-(N-morpholino)ethanesulfonic acid (MES) pH 5.5. Tryptic peptides were dimethyl labeled using 60 mM sodium cyanoborohydride, 0.4% formaldehyde, and 250 mM MES pH 5.5 for 10 min. Dimethyl labeled peptides were eluted from StageTips using 20 μL of 80% acetonitrile with 0.1% trifluoroacetic acid and lyophilized to dryness. Due to the nature of comparing 4 sample groups and being limited to 3 channels for stable isotope reductive amination labeling, two independent multiplexed experiments were run with each
# [2] = system: p185BCR-ABL Arf–/– cells; experiment: Proliferation assay (CellTiter-Glo, 72 h); type: cell-based; conditions: Mus musculus
# Procedure: Cells were plated in 384-well plates (1000 cells/well for suspension cell lines and 500 cells/well for adherent cell lines in 30 µl volume). Drugs were serially diluted to the desired concentrations and an equivalent volume of DMSO was added to vehicle control. Ten microliter of the 4× diluted drugs were added to each well. Following 72 h incubation, ATP content was measured using CellTiter-Glo reagent according to manufacturer’s instructions (Promega, CellTiter-Glo Luminescent Cell Viability Assay), and analyzed by SpectraMax luminometer (Molecular Devices). IC50 values, concentrations required to inhibit proliferation by 50% compared to DMSO treated cells, were calculated using Prism 6.0 h (Graphpad Software).
# [3] = system: Jurkat cells; experiment: Cell cycle histograms (propidium iodide flow cytometry); type: cell-based, human; conditions: dCKi 1 µM, 24 h
# Procedure: Cell cycle histograms. Cells were plated at a density of 0.5 x 10^6 cells/mL in respective media or drug treated
# media. Following 24 h incubation, cells were harvested and washed twice with PBS twice before staining with
# 0.5 ml of propidium iodide (Calbiochem, #P3566, 1 µg/mL) solution containing Ribonuclease A and 0.3%
# Triton-X 100. The samples were protected from light before acquisition by flow cytometry. […]
# [4] = Suppl. Fig. 5e, BCX-1777 100 nM
Structure (SMILES),Protein expression level normalized to control (NT): Eukaryotic translation initiation factor 6 (EIF6) [1],Protein expression level normalized to control (NT): Ribonucleoside-diphosphate reductase subunit M2 (RRM2) [1],Protein expression level normalized to control (NT): Translationally-controlled tumor protein (TPT1) [1],"decrease of RRM1 protein level ([1]; following ATR inhibition, 12 h) [%]","decrease of RRM2 protein level ([1]; following ATR inhibition, 12 h) [%]","decrease of thymidylate synthase protein level ([1]; following ATR inhibition, 12 h) [%]",RNR Level [1],dCK Level [1],pIC50 [2],Protein expression level normalized to control (NT): Eukaryotic translation initiation factor 6 (EIF6) ([1]; listed as DI-82),Protein expression level normalized to control (NT): Ribonucleoside-diphosphate reductase subunit M2 (RRM2) ([1]; listed as DI-82),Protein expression level normalized to control (NT): Translationally-controlled tumor protein (TPT1) ([1]; listed as DI-82),"cells in G2/M ([3]; Suppl. Fig. 4e, dCF 10 µM) [%]","cells in S phase ([3]; Suppl. Fig. 4e, dCF 10 µM) [%]","cells in G2/M [3, 4] [%]","cells in S phase [3, 4] [%]"
CNCc1ccc(-c2cc(-c3nc(-c4ccc(S(=O)(=O)C(C)C)cc4)cnc3N)on2)cc1 [VE-822],1.09 and 1.10 and 1.08,0.57 and 0.45 and 0.53,0.80 and 0.79 and 0.85,> 20,> 20,> 20,↓,⟷,~6.52,–,–,–,–,–,–,–
COc1ccc(-c2nc([C@@H](C)Sc3nc(N)cc(N)n3)c(C)s2)cc1OCCNS(C)(=O)=O [dCKi],–,–,–,–,–,–,⟷,⟷,–,1.00 and 0.98 and 0.95 and 0.99,1.17 and 0.99 and 1.08 and 1.15,0.99 and 0.98 and 0.95,17,30,14,32
